Source: US20110044913A1, “8-HYDROXY-5-[(1R)-1-HYDROXY-2-[[(1R)-2-(4-METHOXYPHENYL)-1-METHYLETHYL]AMINO]ETHYL]-2(1H)-QUINOLINONE HEMI-FUMARATE” (Chiesi Farmaceutici S.p.A., priority 2009, published 2011)
Where a name gives a salt, the structure may show the parent alone.

Key:
Type in all cases: physicochemical
[1] = Solubility of the salt in different solvents
[2] = Hygroscopicity of the salt
[3] = Dispersion of the micronized salt in the carrier by Near Infrared microscopy imaging (Near Imaging); settings: micronized form, after 180 minute of mixing
Protocol: As it can be appreciated from Table 6, upon milling, the salt of the present invention remains crystalline and its chemical purity is not altered. The batch is then added to a carrier made of coarser particles.
The homogeneous dispersion of the active ingredient in the powder, and the absence of aggregates of active particles is established using a Near Infrared spectrophotometer equipped with a microscopy imaging system (Near Imaging).

[4] = Chemical and physical stability of the salt; settings: different conditions of humidity and temperature
[5] = Particle size distribution after jet milling (micronization); settings: micronized batch
Excerpt: A batch of formoterol fumarate dihydrate is milled in a nitrogen fluid jet mill apparatus MC 50 (JET Pharma S.A).

- Solubility in HFA propellants ([1]; HFA propellants): practically insoluble
- Solubility in Vertrel XF ([1]; solvent: Vertrel XF (2,3-dihydodecafluoropentane, simulates HFA propellants), l.o.d. = limit of detection): <l.o.d.^(2)
- Solubility in Acetone ([1]; solvent: acetone): 0.008 %, w/v
- Solubility in Ethanol ([1]; solvent: ethanol): 0.27 %, w/v
- solubility ([1]; solvent: water): 13.6 mg/mL
- Hygroscopicity [2]: non-hygroscopic
- Agglomerates after mixing with carrier [3]: no agglomerates are observed
- Chemical and physical stability [4]: chemically and physically stable
- Particle size d (v, 0.1) [5]: 0.79 μm
- Particle size d (v, 0.5) [5]: 3.73 μm
- Particle size d (v, 0.9) [5]: 7.58 μm
Structure (SMILES): COc1ccc(CC(C)NCC(O)c2ccc(O)c3[nH]c(=O)ccc23)cc1 [Carmoterol hemi-fumarate, 8-hydroxy-5-[(1R)-1-hydroxy-2-[[(1R)-2-(4-methoxyphenyl)-1-methylethyl]amino]ethyl]-2(1H)-quinolinone (carmoterol) hemi-fumarate salt]
